Consider 1 compound from US4232148A, “6-Deoxyneamines” (The Upjohn Company, priority 1979, dated 1980).

≈ marks a conversion by molar mass, not a printed value. Where two headings read alike, the source gives them in different places. Where only a bound is given, the exact number is not on record here.

In this experiment the test system is P. rettgeri UC 339. The experiment is described as follows: standard microplate test in BHI Agar, MIC. It is filed as cell-based. Conditions: Providencia rettgeri, UC339, 20 h. The protocol:
The compounds VII, XI, XVβ, XVα and XVI were tested in a standard microplate test in BHI (Brain Heart Infusion) Agar at a concentration of 1 mg./ml. and dilutions thereof at 37° incubation temperature. The end points are read at 20 hours. BHI Agar is supplied by Difco Laboratories, Detroit, Mich., U.S.A. and has the following compositions:
Calf brains, infusion from: 200 gm.
Beef heart, infusion from: 250 gm.
Bacto Proteose-peptone, Difco: 10 gm.
Bacto-Dextrose, Difco: 1 gm.
Disodium phosphate: 2.5 gm.

With `NC[C@H]1O[C@H](O[C@H]2[C@H](O)[C@@H](O)[C@H](N)C[C@@H]2N)[C@H](N)[C@@H](O)[C@@H]1O` [Neamine], the MIC runs as follows: (read-out: Minimal Inhibitory Concentration) > 500 µg/mL; (read-out: Minimum Inhibitory Concentration) 250 µg/mL (≈ 776 µM).
